Measured values as given in patent publication US12030904B2 (priority 2020, dated 2024).
Read-outs that look alike come from different tables or passages of the source.

What was measured:
[1] = system: Recombinant Respiratory Syncytial virus strain A2 containing the firefly luciferase reporter (RSV-Fluc); experiment: microbe, parasite or virus in culture; assay type: cell-based; conditions: human respiratory syncytial virus, NHBE
[2] = MT4 cytotoxicity (CC50); conditions: human, MT4 cells
[3] = system: SARS-CoV-2; experiment: microbe, parasite or virus in culture; assay type: cell-based; conditions: Severe acute respiratory syndrome coronavirus 2, read-out: SARS EC50
[4] = 72 h, read-out: RSV-Fluc EC50 (NHBE), NHBE cells, three days, Table 2

Molecule `CCCCCCCCCCCCCCCCCCOC[C@H](COP(=O)(O)OC[C@H]1O[C@@](C#N)(c2ccc3c(N)ncnn23)[C@H](O)[C@@H]1O)OCc1cccc(C#N)c1` [Example 39, ((2R,3S,4R,5R)-5-(4-aminopyrrolo[2,1-f][1,2,4]triazin-7-yl)-5-cyano-3,4-dihydroxytetrahydrofuran-2-yl)methyl ((R)-2-((3-cyanobenzyl)oxy)-3-(octadecyloxy)propyl) hydrogen phosphate] has an EC50 [1, 4] of 27 nM, an EC50 ([1]; read-out: RSV EC50, Table 2a) of 27 nM and a CC50 ([2]; MT4 CC50, Table 2a) of 348 nM. It also gave an EC50 [3] of 284 nM.

`CCCCCCCCCCCCCCCCCCOC[C@@H](CCc1ccccc1)COP(=O)(O)OC[C@H]1O[C@@](C#N)(c2ccc3c(N)ncnn23)[C@H](O)[C@@H]1O` [Example 22, ((2R,3S,4R,5R)-5-(4-aminopyrrolo[2,1-f][1,2,4]triazin-7-yl)-5-cyano-3,4-dihydroxytetrahydrofuran-2-yl)methyl ((R)-2-((octadecyloxy)methyl)-4-phenylbutyl) hydrogen phosphate] showed an EC50 [1, 4] of 160 nM, an EC50 ([1]; read-out: RSV EC50, Table 2a) of 158 nM and a CC50 ([2]; MT4 CC50, Table 2a) of 26400 nM. The EC50 [3] was 5220 nM.

Work on `CCCCCCCCCCCCCCCCCCOC[C@@H](COP(=O)(O)OC[C@H]1O[C@@](C#N)(c2ccc3c(N)ncnn23)[C@H](O)[C@@H]1O)OCc1cc(F)cc(C#N)c1` [Example 93, ((2R,3S,4R,5R)-5-(4-aminopyrrolo[2,1-f][1,2,4]triazin-7-yl)-5-cyano-3,4-dihydroxytetrahydrofuran-2-yl)methyl ((S)-2-((3-cyano-5-fluorobenzyl)oxy)-3-(octadecyloxy)propyl) hydrogen phosphate] yielded an EC50 ([1]; read-out: RSV EC50, Table 4) of 79 nM, a CC50 ([2]; MT4 CC50, Table 4) of 1730 nM and an EC50 [3] of 450 nM.

In the case of `CCCCCCCCCCCCCCCCCCOC[C@H](COP(=O)(O)OC[C@H]1O[C@@](C#N)(c2ccc3c(N)ncnn23)[C@H](O)[C@@H]1O)OCc1cncc(C#N)c1` [Example 75, ((2R,3S,4R,5R)-5-(4-aminopyrrolo[2,1-f][1,2,4]triazin-7-yl)-5-cyano-3,4-dihydroxytetrahydrofuran-2-yl)methyl ((R)-2-((5-cyanopyridin-3-yl)methoxy)-3-(octadecyloxy)propyl) hydrogen phosphate], the EC50 ([1]; read-out: RSV EC50, Table 4) is reported as 72 nM, the CC50 ([2]; MT4 CC50, Table 4) is reported as 195 nM and the EC50 [3] is reported as 28 nM.

For `CCCCCCCCCCCCCCCCCCOC[C@H](COP(=O)(O)OC[C@H]1O[C@@](C#N)(c2ccc3c(N)ncnn23)[C@H](O)[C@@H]1O)Oc1cnc(C#N)c(OC)c1` [Example 83, ((2R,3S,4R,5R)-5-(4-aminopyrrolo[2,1-f][1,2,4]triazin-7-yl)-5-cyano-3,4-dihydroxytetrahydrofuran-2-yl)methyl ((R)-2-((6-cyano-5-methoxypyridin-3-yl)oxy)-3-(octadecyloxy)propyl) hydrogen phosphate], the EC50 ([1]; read-out: RSV EC50, Table 4) was 5 nM, the CC50 ([2]; MT4 CC50, Table 4) was 164 nM and the EC50 [3] was 40 nM.

Work on `CCCCCCCCCCCCCCOC[C@H](COP(=O)(O)OC[C@H]1O[C@@](C#N)(c2ccc3c(N)ncnn23)[C@H](O)[C@@H]1O)OCc1cc(F)cc(C#N)c1` [Example 117, [(2R,3S,4R,5R)-5-(4-aminopyrrolo[2,1-f][1,2,4]triazin-7-yl)-5-cyano-3,4-dihydroxy-tetrahydrofuran-2-yl]methyl [(2R)-2-[(3-cyano-5-fluoro-phenyl)methoxy]-3-tetradecoxy-propyl] hydrogen phosphate] yielded an EC50 ([1]; read-out: RSV EC50, Table 4) of 15 nM, a CC50 ([2]; MT4 CC50, Table 4) of 473 nM and an EC50 [3] of 200 nM.

Work on `CCCCCCCC/C=C/CCCCCCCCOC[C@H](COP(=O)(O)OC[C@H]1O[C@@](C#N)(c2ccc3c(N)ncnn23)[C@H](O)[C@@H]1O)OCc1ccccc1` [Example 131, ((2R,3S,4R,5R)-5-(4-aminopyrrolo[2,1-f][1,2,4]triazin-7-yl)-5-cyano-3,4-dihydroxytetrahydrofuran-2-yl)methyl ((R)-2-(benzyloxy)-3-(((E)-octadec-9-en-1-yl)oxy)propyl) hydrogen phosphate] yielded an EC50 ([1]; read-out: RSV EC50, Table 4) of 39 nM, a CC50 ([2]; MT4 CC50, Table 4) of 3390 nM and an EC50 [3] of 110 nM.

Molecule `CCCCCCCCCCCCCCCCCCOC[C@H](COP(=O)(O)OC[C@H]1O[C@@](C#N)(c2ccc3c(N)ncnn23)[C@H](O)[C@@H]1O)OCc1ccsc1` [Example 20, ((2R,3S,4R,5R)-5-(4-aminopyrrolo[2,1-f][1,2,4]triazin-7-yl)-5-cyano-3,4-dihydroxytetrahydrofuran-2-yl)methyl ((R)-3-(octadecyloxy)-2-(thiophen-3-ylmethoxy)propyl) hydrogen phosphate] has an EC50 [1, 4] of 76 nM, an EC50 ([1]; read-out: RSV EC50, Table 2a) of 76 nM and a CC50 ([2]; MT4 CC50, Table 2a) of 13200 nM. The EC50 [3] was 264 nM.

Molecule `CCCCCCCCCCOCCCOP(=O)(O)OC[C@H]1O[C@@](C#N)(c2ccc3c(N)ncnn23)[C@H](O)[C@@H]1O` [Example 56, ((2R,3S,4R,5R)-5-(4-Aminopyrrolo[2,1-f][1,2,4]triazin-7-yl)-5-cyano-3,4-dihydroxytetrahydrofuran-2-yl)methyl (3-(decyloxy)propyl) hydrogen phosphate] has an EC50 [1, 4] of 5000 nM, an EC50 ([1]; read-out: RSV EC50, Table 2a) of 5000 nM and a CC50 ([2]; MT4 CC50, Table 2a) of 50000 nM. For the same molecule, the EC50 [3] was 10000 nM.

`CCCCCCCCCCCCCCCCCCOC[C@H](COP(=O)(O)OC[C@H]1O[C@@](C#N)(c2ccc3c(N)ncnn23)[C@H](O)[C@@H]1O)OCc1ccc(C#N)c(OC)c1` [Example 54, ((2R,3S,4R,5R)-5-(4-Aminopyrrolo[2,1-f][1,2,4]triazin-7-yl)-5-cyano-3,4-dihydroxytetrahydrofuran-2-yl)methyl ((R)-2-((4-cyano-3-methoxybenzyl)oxy)-3-(octadecyloxy)propyl) hydrogen phosphate] showed an EC50 ([1]; read-out: RSV EC50, Table 2a) of 19 nM, a CC50 ([2]; MT4 CC50, Table 2a) of 289 nM and an EC50 [3] of 1630 nM.

Molecule `CCCCCCCCCCCCCCCCOC[C@H](COP(=O)(O)OC[C@H]1O[C@@](C#N)(c2ccc3c(N)ncnn23)[C@H](O)[C@@H]1O)OCc1ccc(C#N)cc1F` [Example 112, [(2R,3S,4R,5R)-5-(4-Aminopyrrolo[2,1-f][1,2,4]triazin-7-yl)-5-cyano-3,4-dihydroxy-tetrahydrofuran-2-yl]methyl [(2R)-2-[(4-cyano-2-fluoro-phenyl)methoxy]-3-hexadecoxy-propyl] hydrogen phosphate] has an EC50 ([1]; read-out: RSV EC50, Table 4) of 63 nM, a CC50 ([2]; MT4 CC50, Table 4) of 1940 nM and an EC50 [3] of 130 nM.

For `CCCCCCCCCCCCCCCCCCOC[C@H](COP(=O)(O)OC[C@H]1O[C@@](C#N)(c2ccc3c(N)ncnn23)[C@H](O)[C@@H]1O)Oc1ccc(C#N)c(OC)c1` [Example 74, ((2R,3S,4R,5R)-5-(4-aminopyrrolo[2,1-f][1,2,4]triazin-7-yl)-5-cyano-3,4-dihydroxytetrahydrofuran-2-yl)methyl ((R)-2-(4-cyano-3-methoxyphenoxy)-3-(octadecyloxy)propyl) hydrogen phosphate], the EC50 ([1]; read-out: RSV EC50, Table 4) was 10 nM, the CC50 ([2]; MT4 CC50, Table 4) was 196 nM and the EC50 [3] was 31 nM.

Molecule `CCCCCCCCCCCCCCCCCCOC[C@H](COP(=O)(O)OC[C@H]1O[C@@](C#N)(c2ccc3c(N)ncnn23)[C@H](O)[C@@H]1O)OCc1ccc(C(F)(F)F)nc1` [Example 123, [(2R,3S,4R,5R)-5-(4-Aminopyrrolo[2,1-f][1,2,4]triazin-7-yl)-5-cyano-3,4-dihydroxy-tetrahydrofuran-2-yl]methyl [(2R)-3-octadecoxy-2-[[6-(trifluoromethyl)-3-pyridyl]methoxy]propyl] hydrogen phosphate] has an EC50 ([1]; read-out: RSV EC50, Table 4) of 55 nM, a CC50 ([2]; MT4 CC50, Table 4) of 1040 nM and an EC50 [3] of 340 nM.
